Measured values published in paper PMC5653232 (Cell reports, 2017).

Legend:
Assay type in all cases: binding
[1] = tested on: CHD3 PHD1/2; assay: 1H,15N HSQC NMR titration, linked CHD3 PHD1/2; conditions: 15N-labelled PHD1/2, 298 K, H3 peptides aa 1–12
[2] = target: CHD3 PHD1 (Homo sapiens, UniProt Q12873); assay: 1H,15N HSQC NMR titration, CHD3 PHD1; conditions: compared with unmodified H3; protein:peptide ratio 1:0.5; 298 K
[3] = target: CHD3 PHD2 (Homo sapiens, UniProt Q12873); assay: 1H,15N HSQC NMR titration, CHD3 PHD2; conditions: compared with unmodified H3; protein:peptide ratio 1:0.5; 298 K
[4] = tested on: biotinylated histone peptides (residues 1–20 of H3); assay: Pull-down of GST-CHD3 PHDs with biotinylated histone H3 peptides, Western blot; conditions: blots overexposed to the same degree as PHD1/2; 2 h at 4 °C, pH 8.0

| effect of modification on binding by NMR CSPs, PHD1 [2] | effect of modification on binding by NMR CSPs, PHD2 [3] | Substance | chemical shift perturbations, linked PHD1/2 [1] | pull-down association of individual PHD1 and PHD2 with histone peptides [4] |
| --- | --- | --- | --- | --- |
| strong inhibitory effects | strong inhibitory effects | H3K4me3: histone H3 peptide (aa 1–12) with the K4me3 modification | CSPs consistent with a much weaker association |  |
|  |  | PHD1: PHD1 (373–427) of CHD3 (GYETDHQDYCEVCQQGGEIILCDTCPRAYHLVCLDPELDRAPEGKWSCPHCEKEG; left off: GST, end not stated, cleaved) |  | barely detectable |
|  |  | PHD2: PHD2 (454–508) of CHD3 (DHMEYCRVCKDGGELLCCDACISSYHIHCLNPPLPDIPNGEWLCPRCTCPVLKGR; left off: GST, end not stated, cleaved) |  | barely detectable |
